Reference: US10653732B2, “Composition for stimulating insulin secretion from cells and use thereof” (KOREA INSTITUTE OF SCIENCE AND TECHNOLOGY, priority 2017, dated 2020)
“Also recorded” adds a separate entry of the source.

Key:
[1] = tested on: INS-1 cells; assay: Protecting effect on pancreatic toxicity (streptozotocin-treated INS-1 cells, CCK-8); details: for Cell viability (%): rat, 24 h
Protocol: The cell line INS-1 (Biohermes, Shanghai, China) was used to evaluate a protecting effect on pancreatic toxicity as follows.
INS-1 cells were cultured in RPMI1640 medium (Cellgro, Manassas, USA) supplemented with 10% fetal bovine serum (FBS), 100 unit/mL of penicillin G, 100 μg/mL of streptomycin, 10 mM Hepes, 2 mM L-glutamine, 1 mM sodium pyruvate, and 0.05 mM 2-merchapto ethanol in an incubator maintained at 37° C. and 95% air/5% carbon dioxide. Among the above-mentioned ingredients, the reagents of which manufacturers were not mentioned were purchased from Gibco BRL, Life Technologies.
The cultured INS-1 cells were dispensed at a density of 1×10^4 per well in 100 μL of the same medium in a 96-well plate, and cultured for 24 hours under the same conditions to stabilize the cells. […] Then, 10 μL (final concentration of 50 μM) of 500 μM streptozotocin in the same medium was added and cultured for 24 hours. Then, 10 μL of CCK-8 (Dojindo Laboratories, Japan) reagent was added to each well, and cultured at 37° C. 1 hour later, absorbance at 450 nm was measured by using a BIO-TEK (Winooski, Vt., USA) microplate reader to measure cell viability. The predetermined concentrations are as follows: concentrations of the extract and the fractions were 0 μg/mL, 5 μg/mL, 10 μg/mL, 25 μg/mL, 50 μg/mL, and 100 μg/mL. The concentration of the single compound was 0 μM, 5 μM, 10 μM, 25 μM, 50 μM, and 100 μM.

[2] = tested on: INS-1 cells; assay: Effect on insulin secretion of INS-1 cells (stimulation index, rat insulin RIA); type: cell-based; details: for Stimulation index (SI): 16.7 mM / […] glucose; for insulin secretion of INS-1 cells in words: concentrations of Table 2
Protocol: Thereafter, the cells were washed twice with 2 ml of Krebs-Ringer buffer which was prepared by mixing 114 mM sodium chloride (NaCl), 4.4 mM potassium chloride (KCl), 1 mM magnesium sulfate (MgSO4), 1.28 mM calcium chloride (CaCl2), 29.5 mM sodium bicarbonate (NaHCO3), 10 mM Hepes (Gibco BRL Life Technologies), and 0.1% bovine serum albumin (BSA) and adjusting a hydrogen ion concentration at pH 7.4.
The concentration of the single compound was 1 μM, 2.5 μM, and 5 μM.
0.2 mL of Krebs-Ringer buffer containing […] glucose was added to each well, and incubated for 1 hour. Thereafter, centrifugation was performed at 4° C. for 10 minutes at 12,000 rpm, and a supernatant was taken and quantity of insulin was measured by using a Rat insulin RIA kit (Gentaur Molecular Products, Belgium). Stimulation index (SI) was calculated by dividing a value measured at a high concentration of glucose, i.e., quantity of insulin secreted by stimulation of 16.7 mM glucose by a value measured at a low concentration of glucose, i.e., quantity of insulin secreted by stimulation of 3.3 mM glucose. As a positive control group, gliclazide was used at a concentration of 2.5 μM, 5.0 μM, 10 μM, or 20 μM.

[3] = tested on: INS-1 cells; assay: Image-based cell analysis of apoptosis (Annexin V/PI) in streptozotocin-treated INS-1 cells; parameters: species or system rat; details: 50 μM streptozotocin; for green fluorescent (apoptotic) cells, microscopic image FIG. 8A: 10 μM or more; for Apoptosis (%): 10 μM, 24 hours, annexin V-positive cells; for apoptosis by streptozotocin in words, FIG. 8B: INS-1 cells
Protocol: Thereafter, hypoxylonol-C and BNT at a concentration of 10 μM were added to 2.7 mL of the same medium and further cultured for 2 hours. […] Then, cells were collected by using trypsin, and washed with PBS once. The cells were suspended in 100 μL of Annexin binding buffer (composition: 100 mM HEPES, 140 mM NaCl, 25 mM CaCl2, pH 7.4) at a density of 5×10^5 to 5×10^6 cells/mL, and then mixed with 5 μL of Annexin V Alexa Fluor 488, and fixed and stained at room temperature for 20 minutes in the dark room. The cell suspension was centrifuged to discard the supernatant. Precipitated cell pellets were re-suspended in 100 μL of Annexin binding buffer. 1 μL of propidium was added to the cell suspension and mixed well to fix and stain the cells at room temperature for 1 minute to 5 minutes in the dark room. Analysis of the stained cells was performed by using a Tali Image-based cytometer and TaliPCApp (version 1.0).
Cells were sorted into living cells (annexin V-negative/PI-negative), early apoptotic cells (annexin V-positive/PI-negative), and late apoptotic cells or necrotic cells (annexin V-positive/PI-positive), and total apoptotic cells was expressed as a percentage of annexin V-positive/PI-negative or positive cells.

[4] = tested on: INS-1 cells; assay: Measurement of cytotoxicity against INS-1 cells (CCK-8 cell viability); type: cell-based, rat; details: for Cell viability (%): 24 hours, INS-1; for cytotoxicity / toxicity in words: INS-1 cells, concentrations of Table 1
Protocol: A cell line INS-1 (Biohermes, Shanghai, China) is a rat insulinoma, and has ability to secrete insulin.
The concentration of the single compound was 1.0 μM, 2.5 μM, and 5.0 μM.
In Table 1, cell viability was calculated by the following equation:
Cell viability (%)=NB×100, wherein A represents absorbance of a non-sample added group and B represents absorbance of a sample-added group.

[5] = Fukai et al., J. Nat. Prod. 2014, 77, 1065-1068; cited from earlier work
[6] = 1.0 (head μg/ml; b127 μM for single compound)
[7] = 2.5 (head μg/ml; b127, b128 μM for single compound and gliclazide)
[8] = 5.0 (head μg/ml; b127, b128 μM for single compound and gliclazide)
[9] = 1.0 (μg/mL; μM for single compound)
[10] = 2.5 (μg/mL; μM for single compound)
[11] = 5.0 (μg/mL; μM for single compound)

Row | SMILES | Stimulation index (SI) [2, 6] | Stimulation index (SI) [2, 7] | Stimulation index (SI) [2, 8] | insulin secretion of INS-1 cells in words [2] | green fluorescent (apoptotic) cells, microscopic image FIG. 8A [3] | Apoptosis (%) [3] | apoptosis by streptozotocin in words, FIG. 8B [3] | Cell viability (%) [4, 9] | Cell viability (%) [4, 10] | Cell viability (%) [4, 11] | cytotoxicity / toxicity in words [4] | cell viability reduced by streptozotocin, effect in words ([1]; 50 μM streptozotocin) | Cell viability (%) ([1]; 5 µM) | Cell viability (%) ([1]; 10 µM) | Cell viability (%) ([1]; 25 µM) | Cell viability (%) ([1]; 50 µM) | further results
1 | CN(N=O)C(=O)N[C@H]1C(O)O[C@H](CO)[C@@H](O)[C@@H]1O (mixture of isomers) [streptozotocin, reference compound] |  |  |  |  |  |  |  |  |  |  |  |  |  |  |  |  | number of INS-1 cells as compared with non-treated group ([1]; 50 μM streptozotocin, 24 hours): ≤ 50%
2 | Oc1cccc2c(-c3ccc(O)c4c(O)cccc34)ccc(O)c12 [BNT, 1,1′-binaphthalene-4,4′,5,5′-tetrol] | 6.7 ± 0.0 | 7.4 ± 0.0 | 6.8 ± 0.2 | concentration-dependent manner | apoptotic cells were decreased | 19.3 ± 0.5% | remarkably reduced apoptosis | 100.3 ± 3.6% | 100.1 ± 2.1% | 106.6 ± 2.9% | no cytotoxicity; also recorded: no toxicity | significantly increased cell viability | 73.5 ± 3.0% | 76.8 ± 4.5% | 78.4 ± 1.5% | 81.5 ± 3.3% | 
3 | O=C1CC2C(=C3c4c2ccc(O)c4[C@@H](O)C[C@@H]3O)c2cccc(O)c21 (stereo partly shown) [Hypoxylonol-C] | 6.3 ± 0.3 | 5.3 ± 0.1 | 6.1 ± 0.1 | concentration-dependent manner | apoptotic cells were decreased | 21.6 ± 1.5% | remarkably reduced apoptosis | 97.4 ± 1.7% | 96.4 ± 1.4% | 97.3 ± 3.0% | no cytotoxicity; also recorded: no toxicity | significantly increased cell viability | 66.0 ± 0.9% | 75.6 ± 2.5% | 80.7 ± 1.5% | 85.7 ± 1.7% | antiangiogenic effect [5]: has an antiangiogenic effect
4 | O=C1CC2C(=C3c4c2ccc(O)c4[C@H](O)C[C@@H]3O)c2cccc(O)c21 (stereo partly shown) [Hypoxylonol-F] | 7.1 ± 0.4 | 7.7 ± 0.3 | 10.6 ± 0.3 | concentration-dependent manner |  |  |  | 96.2 ± 4.5% | 97.3 ± 4.6% | 96.1 ± 0.9% | no cytotoxicity; also recorded: no toxicity | significantly increased cell viability | 70.1 ± 1.7% | 68.3 ± 3.2% | 70.0 ± 4.3% | 69.8 ± 3.8% | Cell viability (%) ([1]; 100 µM): 71.6 ± 0.9%
5 | Cc1ccc(S(=O)(=O)NC(=O)NN2CC3CCCC3C2)cc1 (stereo not shown) [gliclazide, reference compound] |  | 6.1 ± 0.0 | 5.7 ± 0.0 |  |  |  |  |  |  |  |  |  |  |  |  |  | Stimulation index (SI) ([2]; 10.0 (head μg/ml; b128 μM for gliclazide)): 6.1 ± 0.1; Stimulation index (SI) ([2]; 20.0 (head μg/ml; b128 μM for gliclazide)): 9.3 ± 0.0
